Assay type in all cases: cell-based
Assay [1] deals with T1, human P2X3 receptor (Homo sapiens, UniProt P56373).
T1 sequence (P56373 1-397): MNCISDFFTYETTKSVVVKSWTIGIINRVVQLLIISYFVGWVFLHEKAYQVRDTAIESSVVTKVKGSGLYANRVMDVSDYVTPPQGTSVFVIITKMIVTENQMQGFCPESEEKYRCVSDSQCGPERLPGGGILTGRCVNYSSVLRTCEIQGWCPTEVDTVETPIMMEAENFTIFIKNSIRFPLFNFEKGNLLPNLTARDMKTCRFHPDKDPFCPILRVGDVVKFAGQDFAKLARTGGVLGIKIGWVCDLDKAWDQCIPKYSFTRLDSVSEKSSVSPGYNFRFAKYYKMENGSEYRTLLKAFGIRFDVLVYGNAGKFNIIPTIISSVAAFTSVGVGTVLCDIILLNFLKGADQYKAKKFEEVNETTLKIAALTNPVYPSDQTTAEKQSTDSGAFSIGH
In words: Intracellular calcium measurement, antagonist activity at human P2X3 receptors (hP2X3 1321N1), Fluo8. Also noted: expressed in transfected cells; host or cells: human astrocytoma 1321N1 (1312N1 [sic]). The settings on record: column 3); 1321N1 cells, human P2X3, Fluo8, agonist ATP at EC50. The essentials: (§1)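 Inhibition of ATP-triggered Ca2+ transients is measured in 1321N1 cells expressing P2X3 homotrimers or P2X2/3 heterotrimers.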

For assay [2], the target named is T1, human P2X3 receptor. In words: Intracellular calcium measurement to assess antagonist activity at human P2X3 receptors (hP2X3 CHO), photina luminescence. Set-up: expressed in transfected cells; host or cells: Chinese hamster ovary (CHO) cells. Conditions: column 2), CHO cells, agonist α,β-methylene-ATP at EC50. In outline: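 CHO cells stably expressing human P2X3 and mitochondrial photina, plated the day before at 30 °C, then loaded 3 h at 37 °C in 2 mM Ca-tyrode buffer with 5 μg/ml coelenterazine. Agonist-evoked calcium luminescence read immediately; inhibition seen as signal decrease.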
(In general: A change in cytosolic calcium serves as a functional read-out for many receptors and channels.)

A further assay addresses T2, human P2X2/3 receptors (Homo sapiens, UniProt P56373+Q9UBL9).
T2 construct: expressed in transfected cells; host or cells: human astrocytoma 1321N1 (1312N1 [sic])
T2 sequence (P56373 1-397): T1 sequence (P56373 1-397)
T2 sequence (Q9UBL9 1-471): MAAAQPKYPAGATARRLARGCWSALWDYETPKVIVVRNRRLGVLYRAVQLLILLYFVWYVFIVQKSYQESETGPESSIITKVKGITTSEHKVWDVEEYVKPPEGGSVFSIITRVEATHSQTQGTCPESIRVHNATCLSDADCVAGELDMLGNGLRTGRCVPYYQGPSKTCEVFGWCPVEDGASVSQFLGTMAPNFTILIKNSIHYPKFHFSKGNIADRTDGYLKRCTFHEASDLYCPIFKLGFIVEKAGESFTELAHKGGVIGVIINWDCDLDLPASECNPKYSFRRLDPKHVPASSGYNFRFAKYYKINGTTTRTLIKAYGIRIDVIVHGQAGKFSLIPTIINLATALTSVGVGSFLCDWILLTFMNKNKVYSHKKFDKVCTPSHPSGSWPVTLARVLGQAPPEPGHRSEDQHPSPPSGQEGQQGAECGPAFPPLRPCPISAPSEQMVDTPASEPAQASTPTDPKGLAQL
In words: Intracellular calcium measurement, antagonist activity at human P2X2/3 receptors (hP2X23 1321N1), Fluo8. The settings on record: for IC50: column 4); 1321N1 cells, human P2X2/3, Fluo8, agonist ATP at EC50; read-out: 4) hP2X2/3 IC50 [nM] (1321N1); for hP2X23/hP2X3* Selectivity (1321N1): ratio of column 4) hP2X2/3 to column 3) hP2X3, 1321N1. In outline:
as §1

A value given as a limit tells only on which side of the number the result lay.

Take `CC(C)N1Cc2c(n(CC(=O)Nc3ccc(F)cn3)c3cc(C4CCCCC4)nn3c2=O)C1=O` [Example 85]: the IC50 at human P2X3 receptor [1] is 6 nM; on human P2X3 receptor [2] it was 4 nM; on human P2X2/3 receptors, 1950 nM. Further, the “hP2X23/hP2X3* Selectivity (1321N1)” value on human P2X2/3 receptors is recorded as 328.
For `CCc1cc2n(CC(=O)Nc3ccc(F)cn3)c3c(c(=O)n2n1)CN(C[C@H]1CN(C(=O)OC(C)(C)C)CCO1)C3=O` [Example 86, tert-butyl(2S)-2-{[2-ethyl-4-{2-[(5-fluoropyridin-2-yl)amino]-2-oxoethyl}-5,8-dioxo-5,8-dihydro-4H-pyrazolo[1,5-a]pyrrolo[3,4-d]pyrimidin-6(7H)-yl]methyl}morpholine-4-carboxylate], in that order: 140 nM, 70 nM, 2350 nM and 17.
For `CC(C)N1Cc2c(n(CC(=O)Nc3ccc(F)cn3)c3cc(C(C)(C)O)nn3c2=O)C1=O` [Example 88], in that order: 56 nM, 115 nM, above 23500 nM and above 423.
`CCc1cc2n(CC(=O)Nc3ccc(F)cn3)c3c(c(=O)n2n1)CN(CC1CCN(C(=O)OC(C)(C)C)CC1)C3=O` [Example 89]: the IC50 on human P2X3 receptor [1] was 135 nM; at human P2X3 receptor [2], 64 nM; at human P2X2/3 receptors, 6550 nM. Further, the “hP2X23/hP2X3* Selectivity (1321N1)” value on human P2X2/3 receptors is 49.
For `CCc1cc2n(CC(=O)Nc3ccc(F)cn3)c3c(c(=O)n2n1)CN(C[C@@H]1CN(C(=O)OC(C)(C)C)CCO1)C3=O` [Example 90, Tert-butyl(2R)-2-{[2-ethyl-4-{2-[(5-fluoropyridin-2-yl)amino]-2-oxoethyl}-5,8-dioxo-5,8-dihydro-4H-pyrazolo[1,5-a]pyrrolo[3,4-d]pyrimidin-6(7H)-yl]methyl}morpholine-4-carboxylate], in that order: 130 nM, 94 nM, 3450 nM and 27.
For `CC(C)N1Cc2c(n(CC(=O)Nc3ccc(F)cn3)c3cc(NC(=O)OC(C)(C)C)nn3c2=O)C1=O` [Example 91], in that order: 33 nM, 27 nM, 1900 nM and 58.
With `O=C(Cn1c2c(c(=O)n3nc(C4CCOCC4)cc13)CN(C1CCCC1)C2=O)Nc1ccc(F)cn1` [Example 92], the results for the IC50 on human P2X3 receptor [1], on human P2X3 receptor [2] and at human P2X2/3 receptors were 26 nM, 64 nM and 5050 nM, respectively. Also, the “hP2X23/hP2X3* Selectivity (1321N1)” value on human P2X2/3 receptors was found to be 192.
For `CC(C)Cc1cc2n(CC(=O)Nc3ccc(F)cn3)c3c(c(=O)n2n1)CN(C1CCCC1)C3=O` [Example 93], in that order: 8 nM, 6 nM, 2350 nM and 295.
For `CCc1cc2n(CC(=O)Nc3ccc(F)cn3)c3c(c(=O)n2n1)CN(C1CCOCC1)C3=O` [Example 94], in that order: 410 nM, 290 nM, above 23000 nM and above 56.
As for `CCc1cc2n(CC(=O)Nc3ccc(F)cn3)c3c(c(=O)n2n1)CN(CCN1CCOCC1)C3=O` [Example 95], the IC50 at human P2X3 receptor [1] was 273 nM; on human P2X3 receptor [2], 178 nM; at human P2X2/3 receptors, above 22500 nM. In addition, the “hP2X23/hP2X3* Selectivity (1321N1)” value on human P2X2/3 receptors was above 82.
Regarding `CC(C)N1Cc2c(n(CC(=O)Nc3ccc(F)cn3)c3cc(CC4CCOCC4)nn3c2=O)C1=O` [Example 96], the IC50 amounted to 26 nM on human P2X3 receptor [1], 20 nM at human P2X3 receptor [2] and 8800 nM at human P2X2/3 receptors. Further, the “hP2X23/hP2X3* Selectivity (1321N1)” value on human P2X2/3 receptors came out at 345.
For `COCCN1Cc2c(n(CC(=O)Nc3ccc(F)cn3)c3cc(C4CCOCC4)nn3c2=O)C1=O` [Example 97], in that order: 47 nM, 66 nM, 9750 nM and 207.
Consider `COCCN1Cc2c(n(CC(=O)Nc3ccc(F)cn3)c3cc(CC(C)C)nn3c2=O)C1=O` [Example 98], for which the IC50 on human P2X3 receptor [1] amounted to 12 nM; on human P2X3 receptor [2], 8 nM; at human P2X2/3 receptors, 2600 nM. For the same compound, the “hP2X23/hP2X3* Selectivity (1321N1)” value on human P2X2/3 receptors was found to be 211.
For the compound `CCc1cc2n(CC(=O)Nc3ccc(F)cn3)c3c(c(=O)n2n1)CN(C(COC)COC)C3=O` [Example 99], the IC50 is 15 nM at human P2X3 receptor [1], 21 nM at human P2X3 receptor [2] and 9100 nM on human P2X2/3 receptors. Also, the “hP2X23/hP2X3* Selectivity (1321N1)” value at human P2X2/3 receptors came to 607.
For `COCCN1Cc2c(n(CC(=O)Nc3ccc(F)cn3)c3cc(C4CC4)nn3c2=O)C1=O` [Example 100], the IC50 at human P2X3 receptor [1] came out at 20 nM; on human P2X3 receptor [2], 52 nM; at human P2X2/3 receptors, 4850 nM. Also, at human P2X2/3 receptors, the “hP2X23/hP2X3* Selectivity (1321N1)” value is listed as 243.
For `COC[C@H](C)N1Cc2c(n(CC(=O)Nc3ccc(F)cn3)c3cc(C4CC4)nn3c2=O)C1=O` [Example 101], in that order: 13 nM, 28 nM, 6950 nM and 535.
For `COC[C@H](C)N1Cc2c(n(CC(=O)Nc3ccc(F)cn3)c3cc(Cl)nn3c2=O)C1=O` [Example 102], in that order: 81 nM, 114 nM, above 22500 nM and above 278.
`O=C(Cn1c2c(c(=O)n3nc(C4CC4)cc13)CN(CCN1CCOCC1)C2=O)Nc1ccc(F)cn1` [Example 104]: the IC50 on human P2X3 receptor [1] was 120 nM; at human P2X3 receptor [2], 69 nM; at human P2X2/3 receptors, above 32000 nM. For the same compound, the “hP2X23/hP2X3* Selectivity (1321N1)” value on human P2X2/3 receptors was above 267.
For `O=C(Cn1c2c(c(=O)n3nc(Cl)cc13)CN(CCN1CCOCC1)C2=O)Nc1ccc(F)cn1` [Example 105], in that order: 92 nM, 78 nM, above 32000 nM and above 348.
For `CCc1cc2n(CC(=O)Nc3ccc(F)cn3)c3c(c(=O)n2n1)CN(Cc1ccncc1)C3=O` [Example 106], in that order: 46 nM, 69 nM, 10500 nM and 227.
For `CCc1cc2n(CC(=O)Nc3ccc(F)cn3)c3c(c(=O)n2n1)CN(Cc1cccnc1)C3=O` [Example 107], in that order: 17 nM, 18 nM, 5000 nM and 294.
For `CCc1cc2n(CC(=O)Nc3ccc(F)cn3)c3c(c(=O)n2n1)CN(Cc1ccccn1)C3=O` [Example 108], the IC50 at human P2X3 receptor [1] was 16 nM; on human P2X3 receptor [2], 18 nM; on human P2X2/3 receptors, 3200 nM. Also, on human P2X2/3 receptors, the “hP2X23/hP2X3* Selectivity (1321N1)” value stood at 200.
For `CCc1cc2n(CC(=O)Nc3ccc(F)cn3)c3c(c(=O)n2n1)CN(CCCOC)C3=O` [Example 109], in that order: 280 nM, 133 nM, above 32000 nM and above 114.
In the case of `COC[C@H](C)N1Cc2c(n(CC(=O)Nc3ccc(F)cn3)c3cc(C4CCC4)nn3c2=O)C1=O` [Example 110], the IC50 at human P2X3 receptor [1] was found to be 12 nM; on human P2X3 receptor [2], 7 nM; at human P2X2/3 receptors it was 3050 nM. Moreover, at human P2X2/3 receptors, the “hP2X23/hP2X3* Selectivity (1321N1)” value is on record as 254.
With `CCc1cc2n(CC(=O)Nc3ccc(F)cn3)c3c(c(=O)n2n1)CN(Cc1ccc(F)cc1)C3=O` [Example 112], the IC50 at human P2X3 receptor [1] stood at 11 nM; on human P2X3 receptor [2], 17 nM; on human P2X2/3 receptors, 2550 nM. Also, the “hP2X23/hP2X3* Selectivity (1321N1)” value on human P2X2/3 receptors turned out to be 232.

The values above are taken from patent publication US11319324B2, “Pyrazolo-pyrrolo-pyrimidine-dione derivatives as P2X3 inhibitors” (Bayer Aktiengesellschaft, priority 2017, dated 2022).
